Tests used:
large crabgrass [1] = experiment: Test B pre-/postemergence herbicide test; type: in vivo, Digitaria sanguinalis; details: for Plant response rating, Crabgrass, Large: preemergence; for Crabgrass, Large plant response rating: postemergence, visual rating, scale 0 (no effect) to 100 (complete control)
In short: (§1)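 Formulation: non-phytotoxic solvent mix with surfactant. Timing: preemergence on seed and postemergence on 2–18 cm plants, applied concurrently. Readout after 13–15 d greenhouse: visual 0–100 control rating against controls.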

cocklebur = experiment: Test B pre-/postemergence herbicide test; type: in vivo, Xanthium strumarium; details: for Plant response rating, Cocklebur: preemergence; for Cocklebur plant response rating: postemergence, visual rating, scale 0 (no effect) to 100 (complete control)
In short: (§2)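 Flooded paddy rice and barnyardgrass were treated at the 2-leaf stage; upland plantings received compound either on sown seed or on 1- to 4-leaf seedlings. All were kept 13–15 days in a greenhouse and scored visually, 0–100, relative to untreated plants.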

barnyardgrass [2] = experiment: Test B flooded paddy test; type: in vivo, Echinochloa crus-galli; details: 1000 g ai/ha, visual rating, scale 0 to 100 (0 no effect, 100 complete control), 13 to 15 days
In short: (§3)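 After treating 2-leaf paddy plants or 2–18 cm postemergence plants (1 to 4 leaves) with formulated chemical, researchers kept them in a greenhouse for 13–15 days. Effects were judged visually versus controls: 0 indicates none, 100 total control.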

rice [3] = experiment: Test B pre-/postemergence herbicide test; type: in vivo, Oryza sativa; details: 500 g ai/ha; visual rating 0-100, 0 no effect, 100 complete control; preemergence
In short: as §1

velvetleaf [4] = experiment: Test A pre-/postemergence herbicide test; type: in vivo, Abutilon theophrasti
In short: (§4)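 Plants are held in greenhouse about ten days after treatment, then compared with untreated controls and scored 0 (no effect) to 100 (complete control). Preemergence dosing is a directed soil spray on sown sandy loam; postemergence dosing is spray to runoff at 2–10 cm height.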

barnyardgrass [5] = experiment: Test A pre-/postemergence herbicide test; type: in vivo, Echinochloa crus-galli
In short: as §4

wild oat = experiment: Test B postemergence herbicide test; type: in vivo, Avena fatua; details: postemergence, visual rating, scale 0 (no effect) to 100 (complete control)
In short: (§5)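 Formulated test chemicals went onto postemergence plants measuring 2 to 18 cm, at one to four leaves. For the paddy assay, species had reached two leaves. Scoring took place 13–15 days later by eye, relative to untreated plants, using 0 for no effect up to 100 for full control.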

velvetleaf [6] = experiment: Test B pre-/postemergence herbicide test; type: in vivo, Abutilon theophrasti; details: for Plant response rating, Velvetleaf: preemergence; for Velvetleaf plant response rating: postemergence, visual rating, scale 0 (no effect) to 100 (complete control)
In short: as §1

Surinam grass = experiment: Test B pre-/postemergence herbicide test; type: in vivo, Urochloa decumbens; details: for Plant response rating, Surinam Grass: preemergence; for Surinam Grass plant response rating: postemergence, visual rating, scale 0 (no effect) to 100 (complete control)
In short: as §1

rice [7] = experiment: Test B flooded paddy test; type: in vivo, Oryza sativa; details: 1000 g ai/ha, visual rating, scale 0 to 100 (0 no effect, 100 complete control), 13 to 15 days
In short: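 Scale 0–100: zero equals no visible effect, 100 complete control, judged by eye relative to controls. Timing: 13 to 15 days in greenhouse post-treatment. Growth stage at spraying: two leaves (paddy) or one to four leaves, 2–18 cm (postemergence).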

blackgrass = experiment: Test B postemergence herbicide test; type: in vivo, Alopecurus myosuroides; details: postemergence, visual rating, scale 0 (no effect) to 100 (complete control)
In short: as §3

giant foxtail [8] = experiment: Test B pre-/postemergence herbicide test; type: in vivo, Setaria faberi; details: for Plant response rating, Foxtail, Giant: preemergence; for Foxtail, Giant plant response rating: postemergence, visual rating, scale 0 (no effect) to 100 (complete control)
In short: as §1

wheat = experiment: Test B postemergence herbicide test; type: in vivo, Triticum aestivum; design: key to Wheat plant response rating: 0 = no effect, 100 = complete control; details: postemergence, visual rating, scale 0 (no effect) to 100 (complete control)
In short: as §5

ducksalad = experiment: Test B flooded paddy test; type: in vivo, Heteranthera limosa; details: 1000 g ai/ha, visual rating, scale 0 to 100 (0 no effect, 100 complete control), 13 to 15 days
In short: as §3

corn = experiment: Test B pre-/postemergence herbicide test; type: in vivo, Zea mays; details: for Plant response rating, Corn: preemergence; for Corn plant response rating: postemergence, visual rating, scale 0 (no effect) to 100 (complete control)
In short: as §1

pigweed = experiment: Test B pre-/postemergence herbicide test; type: in vivo, Amaranthus retroflexus; details: for Plant response rating, Pigweed: preemergence; for Pigweed plant response rating: postemergence, visual rating, scale 0 (no effect) to 100 (complete control)
In short: as §1

redroot pigweed = experiment: Test A pre-/postemergence herbicide test; type: in vivo, Amaranthus retroflexus
In short: as §4

barnyardgrass [9] = experiment: Test B pre-/postemergence herbicide test; type: in vivo, Echinochloa crus-galli; details: for Plant response rating, Barnyardgrass: preemergence; for Barnyardgrass plant response rating: postemergence, visual rating, scale 0 (no effect) to 100 (complete control)
In short: as §2

[10] = test system: small flower umbrella sedge; experiment: Test B flooded paddy test; type: in vivo, Cyperus difformis; details: 1000 g ai/ha, visual rating, scale 0 to 100 (0 no effect, 100 complete control), 13 to 15 days
In short: as §3

morningglory [11] = experiment: Test B pre-/postemergence herbicide test; type: in vivo, Ipomoea coccinea; details: for Morningglory plant response rating: postemergence, visual rating, scale 0 (no effect) to 100 (complete control)
In short: as §2

large crabgrass [12] = experiment: Test A pre-/postemergence herbicide test; type: in vivo, Digitaria sanguinalis
In short: as §4

giant foxtail [13] = experiment: Test A pre-/postemergence herbicide test; type: in vivo, Setaria faberi
In short: as §4

morningglory [14] = experiment: Test A pre-/postemergence herbicide test; type: in vivo, Ipomoea spp.
In short: as §4

lambsquarters = experiment: Test B pre-/postemergence herbicide test; type: in vivo, Chenopodium album; details: for Plant response rating, Lambsquarters: preemergence; for Lambsquarters plant response rating: postemergence, visual rating, scale 0 (no effect) to 100 (complete control)
In short: as §1

[15] = 500 g ai/ha, visual rating 0-100, 0 no effect, 100 complete control
[16] = 125 g ai/ha, 0 to 100 scale, 0 is no effect, 100 is complete control
[17] = Postemergence, 250 g ai/ha, 0 to 100 scale, 0 no effect, 100 complete control
[18] = Postemergence, 1000 g ai/ha, 0 to 100 scale, 0 no effect, 100 complete control
[19] = Preemergence, 1000 g ai/ha, visual rating, 0 to 100 scale (0 no effect, 100 complete control)
[20] = preemergence, 250 g ai/ha, visual injury, 0 to 100 scale (0 no effect, 100 complete control)

CCn1nc(C(C)(C)C)cc1C(=O)Nc1cccc([S+]([O-])C(F)(F)F)c1 (centres unmarked) [Compound 135]
5: Velvetleaf plant response rating (velvetleaf [4]; [20])
15: Velvetleaf plant response rating (velvetleaf [4]; [17])
30: Crabgrass, Large plant response rating (large crabgrass [1]; 500 g ai/ha) | Plant response rating, Rice (rice [3]) | Barnyardgrass plant response rating (barnyardgrass [5]; [17]) | Velvetleaf plant response rating (velvetleaf [6]; 500 g ai/ha) | Plant response rating, Velvetleaf (velvetleaf [6]; [16]) | Plant response rating, Surinam Grass (Surinam grass; [15]) | Surinam Grass plant response rating (Surinam grass; 125 g ai/ha) | Foxtail, Giant plant response rating (giant foxtail [8]; 125 g ai/ha) | Corn plant response rating (corn; 500 g ai/ha) | Morningglory plant response rating (morningglory [11]; 125 g ai/ha) | Plant response rating, Crabgrass, Large (large crabgrass [12]; [18]) | Plant response rating, Foxtail, Giant (giant foxtail [13]; [18]) | Plant response rating, Lambsquarters (lambsquarters; [16])
100: Plant response rating, Pigweed (pigweed; [15]) | Plant response rating, Lambsquarters (lambsquarters; [15])
90: Plant response rating, Crabgrass, Large (large crabgrass [1]; [15]) | Cocklebur plant response rating (cocklebur; 500 g ai/ha) | Pigweed plant response rating (pigweed; 500 g ai/ha) | Crabgrass, Large plant response rating (large crabgrass [12]; [19])
55: Pigweed plant response rating (redroot pigweed; [20])
70: Sedge, Umbrella plant response rating [10] | Lambsquarters plant response rating (lambsquarters; 125 g ai/ha)
20: Crabgrass, Large plant response rating (large crabgrass [1]; 125 g ai/ha) | Oat, Wild plant response rating (wild oat; 125 g ai/ha) | Oat, Wild plant response rating (wild oat; 500 g ai/ha) | Velvetleaf plant response rating (velvetleaf [6]; 125 g ai/ha) | Plant response rating, Foxtail, Giant (giant foxtail [8]; [15]) | Wheat plant response rating (wheat; 125 g ai/ha) | Wheat plant response rating (wheat; 500 g ai/ha) | Corn plant response rating (corn; 125 g ai/ha) | Barnyardgrass plant response rating (barnyardgrass [9]; 125 g ai/ha) | Crabgrass, Large plant response rating (large crabgrass [12]; [17]) | Foxtail, Giant plant response rating (giant foxtail [13]; [17])
60: Barnyardgrass plant response rating (barnyardgrass [2]) | Rice plant response rating (rice [7]) | Plant response rating, Pigweed (pigweed; [16])
65: Barnyardgrass plant response rating (barnyardgrass [5]; [19])
80: Ducksalad plant response rating (ducksalad) | Pigweed plant response rating (pigweed; 125 g ai/ha) | Pigweed plant response rating (redroot pigweed; [17]) | Lambsquarters plant response rating (lambsquarters; 500 g ai/ha)
10: Plant response rating, Surinam Grass (Surinam grass; [16]) | Plant response rating, Foxtail, Giant (giant foxtail [8]; [16]) | Plant response rating, Morningglory (morningglory [11]; preemergence, 125 g ai/ha, 0 to 100 scale, 0 is no effect, 100 is complete control) | Foxtail, Giant plant response rating (giant foxtail [13]; [20]) | Morningglory plant response rating (morningglory [14]; [17]) | Plant response rating, Morningglory (morningglory [14]; [18])
50: Plant response rating, Crabgrass, Large (large crabgrass [1]; [16]) | Velvetleaf plant response rating (velvetleaf [4]; [19]) | Plant response rating, Barnyardgrass (barnyardgrass [5]; [18]) | Plant response rating, Velvetleaf (velvetleaf [6]; [15]) | Plant response rating, Barnyardgrass (barnyardgrass [9]; [15]) | Morningglory plant response rating (morningglory [11]; 500 g ai/ha) | Foxtail, Giant plant response rating (giant foxtail [13]; [19])
0: Plant response rating, Cocklebur (cocklebur; [15]) | Plant response rating, Cocklebur (cocklebur; [16]) | Blackgrass plant response rating (blackgrass; 125 g ai/ha) | Blackgrass plant response rating (blackgrass; 500 g ai/ha) | Plant response rating, Corn (corn; [15]) | Plant response rating, Corn (corn; [16]) | Morningglory plant response rating (morningglory [14]; [20])
85: Plant response rating, Pigweed (redroot pigweed; [18]) | Pigweed plant response rating (redroot pigweed; [19])
25: Plant response rating, Velvetleaf (velvetleaf [4]; [18]) | Morningglory plant response rating (morningglory [14]; [19])
40: Cocklebur plant response rating (cocklebur; 125 g ai/ha) | Surinam Grass plant response rating (Surinam grass; 500 g ai/ha) | Foxtail, Giant plant response rating (giant foxtail [8]; 500 g ai/ha) | Barnyardgrass plant response rating (barnyardgrass [9]; 500 g ai/ha) | Plant response rating, Barnyardgrass (barnyardgrass [9]; [16]) | Crabgrass, Large plant response rating (large crabgrass [12]; [20])
35: Barnyardgrass plant response rating (barnyardgrass [5]; [20])
